The record followed here is PubChem BioAssay AID1918952 (Molecular Pharmacology Branch, DTP, NCI, 2023).

The experiment concerns LG0703-F948-PDC complex spheroid viability. Description: Anticancer human tumor LG0703-F948-PDC patient-derived lung adenocarcinoma cell line growth inhibition. The conditions noted are these: for viability, T/C: stronger effect = lower value. The method in brief:
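Drug combinations with the LSD1 inhibitor iadademstat tested on tumor cells co-cultured as spheroids with endothelial cells and mesenchymal stem cells. Concentrations descended in half-log increments from clinical Cmax or 10 microM.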

The mark [1] stands for this setting: curve of first compound, second compound 0.1 µM.
Where [2] appears, read: curve of first compound, second compound 0.316 µM.
Setting [3] is: curve of first compound, second compound 1 µM.
Setting [4] is: curve of first compound, second compound 3.16 µM.
The mark [5] stands for this setting: curve of first compound, second compound 10 µM.
[6] abbreviates: second compound 0.1 µM, first compound 0.00949 µM.
Setting [7] is: second compound 0.1 µM, first compound 0.03 µM.
Setting [8] is: second compound 0.1 µM, first compound 0.0949 µM.
Where [9] appears, read: second compound 0.1 µM, first compound 0.3 µM.
Setting [10] is: second compound 0.1 µM, first compound 0.949 µM.
[11] abbreviates: second compound 0.1 µM, first compound 3 µM.
Setting [12] is: second compound 0.316 µM, first compound 0.00949 µM.
Setting [13] is: second compound 0.316 µM, first compound 0.03 µM.
Where [14] appears, read: second compound 0.316 µM, first compound 0.0949 µM.
[15] abbreviates: second compound 0.316 µM, first compound 0.3 µM.
Where [16] appears, read: second compound 0.316 µM, first compound 0.949 µM.
Where [17] appears, read: second compound 0.316 µM, first compound 3 µM.
Where [18] appears, read: second compound 1 µM, first compound 0.00949 µM.
[19] abbreviates: second compound 1 µM, first compound 0.03 µM.
The mark [20] stands for this setting: second compound 1 µM, first compound 0.0949 µM.
Setting [21] is: second compound 1 µM, first compound 0.3 µM.
Setting [22] is: second compound 1 µM, first compound 0.949 µM.
Setting [23] is: second compound 1 µM, first compound 3 µM.
Where [24] appears, read: second compound 3.16 µM, first compound 0.00949 µM.
Setting [25] is: second compound 3.16 µM, first compound 0.03 µM.
Where [26] appears, read: second compound 3.16 µM, first compound 0.0949 µM.
Setting [27] is: second compound 3.16 µM, first compound 0.3 µM.
Where [28] appears, read: second compound 3.16 µM, first compound 0.949 µM.
[29] abbreviates: second compound 3.16 µM, first compound 3 µM.
Where [30] appears, read: second compound 10 µM, first compound 0.00949 µM.
Where [31] appears, read: second compound 10 µM, first compound 0.03 µM.
The mark [32] stands for this setting: second compound 10 µM, first compound 0.0949 µM.
Setting [33] is: second compound 10 µM, first compound 0.3 µM.
The mark [34] stands for this setting: second compound 10 µM, first compound 0.949 µM.
The mark [35] stands for this setting: second compound 10 µM, first compound 3 µM.

Values joined by “and” are separate entries in the source; they are usually repeats but may differ in a detail not shown here. Identical values can stand only once.
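Note: spheroids exposed to agents for seven days before readout.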
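Throughout, for viability, T/C: 100% = DMSO vehicle control wells as normalization base.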

Usually IC50 stands for the concentration needed to halve the response being measured. As a reminder, the viability, T/C is the ratio of treated to control. For `CC1COCCN1c1cc(C2(S(C)(=N)=O)CC2)nc(-c2ccnc3[nH]ccc23)n1` (centres undefined) + NC1CC1c1ccc(-c2cccc(O)c2)cc1, the 50% inhibitory concentration (IC50) turned out to be 5 µM under setting [1]; 4.65 µM under setting [2]; 5.24 µM under setting [3]; 3.55 µM under setting [4]; 3.92 µM under setting [5]. For the same compound, the viability, T/C is, setting by setting: (second compound 0.1 µM, first compound 0.0316 µM) 120%; (second compound 0.1 µM, first compound 0.1 µM) 104%; (second compound 0.1 µM, first compound 0.316 µM) 92.9%; (second compound 0.1 µM, first compound 1 µM) 92.1%; (second compound 0.1 µM, first compound 3.16 µM) 69.7%; (second compound 0.1 µM, first compound 10 µM) 24.1%. For the same compound, the viability, T/C runs as follows: (second compound 0.316 µM, first compound 0.0316 µM) 111%; (second compound 0.316 µM, first compound 0.1 µM) 101%; (second compound 0.316 µM, first compound 0.316 µM) 118%; (second compound 0.316 µM, first compound 1 µM) 97%; (second compound 0.316 µM, first compound 3.16 µM) 63.8%; (second compound 0.316 µM, first compound 10 µM) 23.6%. Moreover, the viability, T/C was 111% (second compound 1 µM, first compound 0.0316 µM); 97.9% (second compound 1 µM, first compound 0.1 µM); 113% (second compound 1 µM, first compound 0.316 µM); 102% (second compound 1 µM, first compound 1 µM); 70.8% (second compound 1 µM, first compound 3.16 µM); 23.4% (second compound 1 µM, first compound 10 µM). For the same compound, the viability, T/C was 96% (second compound 3.16 µM, first compound 0.0316 µM); 89.8% (second compound 3.16 µM, first compound 0.1 µM); 102% (second compound 3.16 µM, first compound 0.316 µM); 79.5% (second compound 3.16 µM, first compound 1 µM); 54.1% (second compound 3.16 µM, first compound 3.16 µM); 22.4% (second compound 3.16 µM, first compound 10 µM). The viability, T/C was 96.5% (second compound 10 µM, first compound 0.0316 µM); 98.9% (second compound 10 µM, first compound 0.1 µM); 91.1% (second compound 10 µM, first compound 0.316 µM); 79.7% (second compound 10 µM, first compound 1 µM); 58.6% (second compound 10 µM, first compound 3.16 µM); 14.8% (second compound 10 µM, first compound 10 µM).
On to `CC(C)CC(NC(=O)CNC(=O)c1cc(Cl)ccc1Cl)B1OC(=O)CC(CC(=O)O)(C(=O)O)O1` (centres undefined), for which the viability, T/C by setting is: (compound 0.000316 µM) 102% and 100%; (compound 0.001 µM) 104% and 92.3%; (compound 0.00316 µM) 68.4% and 56.8%; (compound 0.01 µM) 21.7% and 15.9%; (compound 0.0316 µM) 3.57% and 2.13%; (compound 0.1 µM) 0.76% and 0.44%. The half-inhibitory concentration (IC50) (curve of compound) is 0.00504 µM and 0.00385 µM.
Regarding `O=C(C=Cc1cccc(S(=O)(=O)Nc2ccccc2)c1)NO` + NC1CCC(NC2CC2c2ccccc2)CC1, the concentration for half-maximal inhibition (IC50) under setting [1] was 0.0782 µM; the IC50 under setting [2] came to 0.0835 µM; the concentration for half-maximal inhibition (IC50) under setting [3] was found to be 0.0832 µM; the half-maximal inhibitory concentration (IC50) under setting [4] was 0.0778 µM; the IC50 under setting [5] stood at 0.0576 µM. Moreover, the viability, T/C reads like this: under setting [6], 103%; under setting [7], 88%; under setting [8], 41.8%; under setting [9], 10.5%; under setting [10], 1.71%; under setting [11], 0.44%. Moreover, the viability, T/C is 114% under setting [12]; 93.5% under setting [13]; 44.5% under setting [14]; 10.6% under setting [15]; 1.43% under setting [16]; 0.17% under setting [17]. For the same compound, the viability, T/C was 126% under setting [18]; 89.5% under setting [19]; 48.5% under setting [20]; 9.18% under setting [21]; 1.34% under setting [22]; 0.11% under setting [23]. The viability, T/C by setting is: under setting [24], 102%; under setting [25], 86%; under setting [26], 42.9%; under setting [27], 8.17%; under setting [28], 0.32%; under setting [29], 0.12%. For the same compound, the viability, T/C reads like this: under setting [30], 114%; under setting [31], 77.3%; under setting [32], 29.8%; under setting [33], 4%; under setting [34], 0.21%; under setting [35], 0.19%.
With `O=C(c1cc(Cc2n[nH]c(=O)c3ccccc23)ccc1F)N1CCN(C(=O)C2CC2)CC1`, the viability, T/C reads like this: (compound 0.0316 µM) 84.5% and 107%; (compound 0.1 µM) 97.1% and 103%; (compound 0.316 µM) 86.5% and 98.2%; (compound 1 µM) 93.8% and 106%; (compound 3.16 µM) 85.7% and 85.5%; (compound 10 µM) 65.5% and 74.2%. For the same compound, for the setting “curve of compound”, the IC50 is > 10 µM.
On to `COc1cc(C2c3cc4c(cc3C(OC3OC5COC(C)OC5C(O)C3O)C3COC(=O)C23)OCO4)cc(OC)c1O` (centres undefined) + NC1CCC(NC2CC2c2ccccc2)CC1, for which the IC50 is > 3 µM under setting [1]; > 3 µM under setting [2]; > 3 µM under setting [3]; > 3 µM under setting [4]; > 3 µM under setting [5]. Also, the viability, T/C is, setting by setting: under setting [6], 99.9%; under setting [7], 104%; under setting [8], 94.8%; under setting [9], 87.6%; under setting [10], 72.2%; under setting [11], 58.2%. Further, the viability, T/C is 106% under setting [12]; 108% under setting [13]; 90.7% under setting [14]; 87.6% under setting [15]; 77.8% under setting [16]; 65% under setting [17]. Besides, the viability, T/C under setting [18] was 113%; the viability, T/C under setting [19] is 127%; the viability, T/C under setting [20] was 108%; the viability, T/C under setting [21] is 99.3%; the viability, T/C under setting [22] was 91.4%; the viability, T/C under setting [23] was 73.7%. In addition, the viability, T/C under setting [24] was 120%; the viability, T/C under setting [25] was 105%; the viability, T/C under setting [26] was 112%; the viability, T/C under setting [27] was 108%; the viability, T/C under setting [28] was 98.5%; the viability, T/C under setting [29] was 86.8%. For the same compound, the viability, T/C was 104% under setting [30]; 115% under setting [31]; 118% under setting [32]; 86.2% under setting [33]; 97.5% under setting [34]; 81.4% under setting [35].
